# Reference: patent US4547369A, “Antiviral agent” (Cabinet Harle & Phelip, priority 1973, dated 1985)
# Test system: EMC virus, strain VR 125
# Assay: HPA 23 and murine interferon in EMC infected mice
# Type: in vivo
# Details: no HPA 23
# Excerpt: Synergism occurs between HPA 23 and murine interferon to combat viral infections in mice.
# *Number of survival mice on inoculated mice
# **range of death for dead mice
# [1] = Interferon 1:3 25.000 I.U./mouse i.p.
# [2] = Interferon 1:9 8.000 I.U./mouse i.p.
# [3] = Interferon undiluted 75.000 I.U./mouse i.p.
# [4] = Interferon undiluted 75.000 I.U./mouse i.v.
substance,measurement,setting,value
Interferon,Number of survival mice on inoculated mice,[1],3/10
same,range of death for dead mice,[1],5.5 ± 3.0 days
same,Number of survival mice on inoculated mice,[2],1/10
same,range of death for dead mice,[2],4.4 ± 2.1 days
same,Number of survival mice on inoculated mice,[3],5/10
same,range of death for dead mice,[3],7.1 ± 3.1 days
same,Number of survival mice on inoculated mice,[4],6/10
same,range of death for dead mice,[4],7.7 ± 2.9 days
